Patent publication US6410792B1, “Amide derivatives and methods for using the same as selective neuropeptide Y receptor antagonists” (Bayer Corporation, priority 1997, dated 2002)
Where two headings read alike, the source gives them in different places.

What was measured:
[1] = molecular target: T1, Y2 receptor (Homo sapiens, UniProt P49146); experiment: Y2 receptor binding assay ([125I]PYY, membrane protein); details: read-out: hNPY2 IC50
T1 sequence (P49146 1-381): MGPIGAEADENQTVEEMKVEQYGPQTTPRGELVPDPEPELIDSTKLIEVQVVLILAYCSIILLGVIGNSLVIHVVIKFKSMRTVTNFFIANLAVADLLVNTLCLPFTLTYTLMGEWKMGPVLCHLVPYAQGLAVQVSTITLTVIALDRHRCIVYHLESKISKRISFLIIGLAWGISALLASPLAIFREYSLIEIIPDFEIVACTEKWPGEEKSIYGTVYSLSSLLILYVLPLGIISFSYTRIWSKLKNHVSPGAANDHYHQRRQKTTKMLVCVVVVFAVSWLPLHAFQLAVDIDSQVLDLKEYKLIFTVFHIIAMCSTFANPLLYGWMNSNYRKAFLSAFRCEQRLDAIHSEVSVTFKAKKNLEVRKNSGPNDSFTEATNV
In short: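 Filtration binding with membrane protein and drug dilution, 2 h at room temperature with mixing, radioactivity counted by gamma or scintillation. Y2: 25 pM [125I]PYY in Krebs-Ringer bicarbonate pH 7.4 with 0.01% BSA, nonspecific by 1 μM NPY. Y4/PP1: 50 pM [125I]hPP in HEPES-buffered saline pH 7.4 with protease inhibitors and 0.3% BSA, nonspecific by 1 μM hPP.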

[2] = molecular target: T2, Human NPY5 receptor (Homo sapiens, UniProt Q15761); experiment: Human NPY5 receptor binding assay ([125I]PYY, membrane protein)
T2 sequence (Q15761 1-445): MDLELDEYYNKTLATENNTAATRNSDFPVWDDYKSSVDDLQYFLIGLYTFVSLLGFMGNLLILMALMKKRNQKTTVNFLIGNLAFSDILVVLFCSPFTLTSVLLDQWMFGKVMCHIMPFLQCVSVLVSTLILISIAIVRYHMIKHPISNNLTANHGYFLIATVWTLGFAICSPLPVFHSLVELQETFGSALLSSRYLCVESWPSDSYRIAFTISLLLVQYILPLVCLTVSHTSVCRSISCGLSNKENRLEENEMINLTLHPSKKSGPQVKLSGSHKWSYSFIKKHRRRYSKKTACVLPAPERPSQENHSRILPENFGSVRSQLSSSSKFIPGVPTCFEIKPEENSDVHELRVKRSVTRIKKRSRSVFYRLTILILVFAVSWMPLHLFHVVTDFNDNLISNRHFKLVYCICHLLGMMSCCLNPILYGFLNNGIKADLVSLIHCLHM
In short: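 Competition against porcine [125I]PYY (75-100 pM) on receptor membranes, 2 h, room temperature, Tris-based pH 7.4 buffer with BSA and bacitracin. Bound radioactivity after filtration and ice-cold rinse counted by gamma or liquid scintillation; 1 μM PYY defines nonspecific binding.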

[3] = [125I]PYY binding, membrane protein
[4] = [125I]PYY binding, read-out: hNPY5 IC50

CC1(C)CCN(CC(=O)Nc2ccc(C3CCCCC3)cc2)CC1 [Compound 34, N-(4-Cyclohexyl-phenyl)-2-(4,4-dimethyl-piperidin-1-yl)-acetamide]
IC50 [1, 3]: > 5 µM
IC50 [2, 4]: 1400 nM

CC(=O)C1(c2ccccc2)CCN(CC(=O)Nc2ccc(C(=O)c3ccccc3)cc2)CC1 [Compound 86, 2-(4-Acetyl-4-phenyl-piperidin-1-yl)-N-(4-benzoyl-phenyl)-acetamide]
IC50 [1, 3]: > 5 µM
IC50 [2, 4]: 1 nM

NC(=O)C1(NC2CCCCC2)CCN(CC(=O)Nc2ccc(C3CCCCC3)cc2)CC1 [Compound 35, 4-Cyclohexylamino-1-[(4-cyclohexyl-phenylcarbamoyl)-methyl]-piperidin-4-carboxylic acid amide]
IC50 [1, 3]: > 5 µM
IC50 [2, 4]: 630 nM

O=C(CN1[C@@H](C(=O)O)CC[C@@H]1O)Nc1ccc(C(=O)c2ccccc2)cc1 [Compound 20, (5S,2R)-1-[(4-Benzoyl-phenylcarbamoyl)-methyl]-5-hydroxy-pyrrolidine-2-carboxylic acid]
IC50 [1, 3]: > 5 µM
IC50 [2, 4]: 7600 nM

CCN(CC(=O)Nc1ccc(C(=O)c2ccccc2)cc1)Cc1ccncc1 [Compound 21, N-(4-Benzoyl-phenyl)-2-(ethyl-pyridin-4-ylmethyl-amino)-acetamide]
IC50 [1, 3]: > 5 µM
IC50 [2, 4]: 630 nM

CC1(C)CCN(CC(=O)Nc2ccc(C(=O)c3ccccc3)cc2)CC1 [Compound 51, N-(4-Benzoyl-phenyl)-2-(4,4-dimethyl-piperidin-1-yl)-acetamide]
IC50 [1, 3]: > 5 µM
IC50 [2, 4]: 3300 nM

CC(=O)NCC1(c2ccccc2)CCN(CC(=O)Nc2ccc(C(=O)c3ccccc3)cc2)CC1 [Compound 56, 2-[4-(Acetylamino-methyl)-4-phenyl-piperidin-1-yl]-N-(4-benzoyl-phenyl)-acetamide]
IC50 [1, 3]: > 5 µM
IC50 [2, 4]: 208 nM

2-[4-(4-Chloro-phenyl)-3,6-dihydro-2H-pyridin-1-yl]-N-(4-cyclohexyl-phenyl)-acetamide [Compound 15]
IC50 [1, 3]: > 5 µM
IC50 [2, 4]: 2700 nM

N#CC(c1ccccc1)C1CCN(CC(=O)Nc2ccc(C(=O)c3ccccc3)cc2)CC1 (centres unmarked) [Compound 57, N-(4-Benzoyl-phenyl)-2-[4-(cyano-phenyl-methyl)-piperidin-1-yl]-acetamide]
IC50 [1, 3]: > 5 µM
IC50 [2, 4]: 5 nM

O=C(CN1CCC[C@H]1CO)Nc1ccc(C2CCCCC2)cc1 [Compound 84, N-(4-Cyclohexyl-phenyl)-2-(2S-hydroxymethyl-pyrrolidin-1-yl)-acetamide]
IC50 [1, 3]: > 5 µM
IC50 [2, 4]: 930 nM

CC(O)C1CCN(CC(=O)Nc2ccc(C3CCCCC3)cc2)CC1 (centres unmarked) [Compound 59, N-(4-Cyclohexyl-phenyl)-2-[4-(1-hydroxy-ethyl)-piperidin-1-yl]-acetamide]
IC50 [1, 3]: > 5 µM
IC50 [2, 4]: 650 nM

CNC1(C(N)=O)CCN(CC(=O)Nc2ccc(C(=O)c3ccccc3)cc2)CC1 [Compound 46, 1-[(4-Benzoyl-phenylcarbamoyl)-methyl]-4-methylamino-piperidine-4-carboxylic acid amide]
IC50 [1, 3]: > 5 µM
IC50 [2, 4]: 5 nM

O=C(CN1CCCC1C(O)(c1ccccc1)c1ccccc1)Nc1ccc(C(=O)c2ccccc2)cc1 (centres unmarked) [Compound 125, N-(4-Benzoyl-phenyl)-2-[2-(hydroxy-diphenyl-methyl)-pyrrolidin-1-yl]-acetamide]
IC50 [1, 3]: > 5 µM
IC50 [2, 4]: 430 nM

N#CC1(c2ccccc2)CCN(CC(=O)Nc2ccc(C(=O)c3ccccc3)cc2)CC1 [Compound 44, N-(4-Benzoyl-phenyl)-2-(4-cyano-4-phenyl-piperidin-1-yl)-acetamide]
IC50 [1]: > 5 µM
IC50 [2, 4]: 93 nM

O=C(CN1CCC(O)C1)Nc1ccc(C(=O)c2ccccc2)cc1 (centres unmarked) [Compound 103, N-(4-Benzoyl-phenyl)-2-(3-hydroxy-pyrrolidin-1-yl)-acetamide]
IC50 [1, 3]: > 5 µM
IC50 [2, 4]: 3000 nM

O=C(CN1CCC[C@@H]1C(=O)O)Nc1ccc(C2CCCCC2)cc1 [Compound 117, (2R)-1-[(4-Cyclohexyl-phenylcarbamoyl)-methyl]-pyrrolidine-2-carboxylic acid]
IC50 [1, 3]: > 5 µM
IC50 [2, 4]: 3000 nM

CC1CCN(CC(=O)Nc2ccc(C3CCCCC3)cc2)CC1 [Compound 33, N-(4-Cyclohexyl-phenyl)-2-(4-methyl-piperidin-1-yl)-acetamide]
IC50 [1, 3]: > 5 µM
IC50 [2, 4]: > 10000 nM

O=C(CN1CCC(C(=O)c2ccc(F)cc2)CC1)Nc1ccc(C(=O)c2ccccc2)cc1 [Compound 121, N-(4-Benzoyl-phenyl)-2-[4-(4-fluoro-benzoyl)-piperidin-1-yl]-acetamide]
IC50 [1, 3]: > 5 µM
IC50 [2, 4]: 95 nM

O=C(CN1CCC[C@H]1CN1CCCC1)Nc1ccc(C(=O)c2ccccc2)cc1 [Compound 78, N-(4-Benzoyl-phenyl)-2-(2S-pyrrolidin-1-ylmethyl-pyrrolidin-1-yl)-acetamide]
IC50 [1, 3]: > 5 µM
IC50 [2, 4]: > 5000 nM

CN(C)C1CCN(CC(=O)Nc2ccc(C3CCCCC3)cc2)CC1 [Compound 32, N-(4-Cyclohexyl-phenyl)-2-(4-dimethylamino-piperidin-1-yl)-acetamide]
IC50 [1, 3]: > 5 µM
IC50 [2, 4]: 3000 nM

O=C(CN(CCO)c1ccccc1)Nc1ccc(C(=O)c2ccccc2)cc1 [Compound 17, N-(4-Benzoyl-phenyl)-2-[(2-hydroxy-ethyl)-phenyl-amino]-acetamide]
IC50 [1, 3]: > 5 µM
IC50 [2, 4]: 1200 nM

O=C(CN1CCC(CCC2CCNCC2)CC1)Nc1ccc(C(=O)c2ccccc2)cc1 [Compound 55, n-(4-Benzoyl-phenyl)-2-[4-(2-piperidin-4-ylethyl)-piperidin-1-yl]-acetamide]
IC50 [1, 3]: > 5 µM
IC50 [2, 4]: > 10000 nM

O=C(CN1CCC(Br)CC1)Nc1ccc(C(=O)c2ccccc2)cc1 [Compound 108, N-(4-Benzoyl-phenyl)-2-(4-bromo-piperidin-1-yl)-acetamide]
IC50 [1, 3]: > 5 µM
IC50 [2, 4]: 970 nM

O=C(CN1CCC[C@H]1CN1CCCC1)Nc1ccc(C2CCCCC2)cc1 [Compound 79, N-(4-Cyclohexyl-phenyl)-2-(2S-pyrrolidin-1-ylmethyl-pyrrolidin-1-yl)-acetamide]
IC50 [1, 3]: > 5 µM
IC50 [2, 4]: 3500 nM

O=C(CN1CCC(O)(CCCc2ccccc2)CC1)Nc1ccc(C2CCCCC2)cc1 [Compound 61, N-(4-Cyclohexyl-phenyl)-2-[4-hydroxy-4-(3-phenyl-propyl)-piperidin-1-yl]-acetamide]
IC50 [1, 3]: > 5 µM
IC50 [2, 4]: 9500 nM

O=C(CN1CCC[C@@H]1CO)Nc1ccc(C2CCCCC2)cc1 [Compound 113, N-(4-Cyclohexyl-phenyl)-2-(2R-hydroxymethyl-pyrrolidin-1-yl)-acetamide]
IC50 [1, 3]: > 5 µM
IC50 [2, 4]: 700 nM

O=C(CN(CCO)c1ccccc1)Nc1ccc(C2CCCCC2)cc1 [Compound 14, N-(4-cyclohexyl-phenyl)-2-[(2-hydroxy-ethyl)-phenyl-amino]-acetamide]
IC50 [1, 3]: > 5 µM
IC50 [2, 4]: 1800 nM

O=C(CN1CCCC1CO)Nc1ccc(C(=O)c2ccccc2)cc1 (centres unmarked) [Compound 118, N-(4-Benzoyl-phenyl)-2-(2-hydroxymethyl-pyrrolidin-1-yl)-acetamide]
IC50 [1, 3]: > 5 µM
IC50 [2, 4]: 2000 nM

CC(O)C1CCN(CC(=O)Nc2ccc(C(=O)c3ccccc3)cc2)CC1 (centres unmarked) [Compound 70, N-(4-Benzoyl-phenyl)-2-[4-(1-hydroxy-ethyl)-piperidin-1-yl]-acetamide]
IC50 [1, 3]: > 5 µM
IC50 [2, 4]: 3700 nM

O=C(CN1CCC(Cc2ccccc2)CC1)Nc1ccc(C(=O)c2ccccc2)cc1 [Compound 38, N-(4-Benzoyl-phenyl)-2-(4 benzyl-piperidin-1-yl)-acetamide]
IC50 [1, 3]: > 5 µM
IC50 [2, 4]: 8500 nM

1-[(4-Cyclohexyl-phenylcarbamoyl)-methyl]-piperidine-4-carboxylic acid [Compound 25]
IC50 [1, 3]: > 5 µM
IC50 [2, 4]: 1900 nM

C=C(C)C1CN(CC(=O)Nc2ccc(C(=O)c3ccccc3)cc2)C(C(=O)O)C1CC(=O)O (centres unmarked) [Compound 120, 1-[(4-Benzoyl-phenylcarbamoyl)-methyl]-3-carboxymethyl-4-isopropenyl-pyrrolidine-2-carboxylic acid]
IC50 [1, 3]: > 5 µM
IC50 ([2]; hNPY5 IC50, [125I]PYY binding): > 10000 nM

2-[4-(4-Bromo-phenyl)-4-hydroxy-piperidin-1-yl]-N-(4-cyclohexyl-phenyl)-acetamide [Compound 88]
IC50 [1, 3]: > 5 µM
IC50 [2, 4]: 120 nM

O=C(CN1CCC(N2CCCCC2)CC1)Nc1ccc(C(=O)c2ccccc2)cc1 [Compound 39, N-(4-Benzoyl-phenyl)-2-[1,4′]bipiperidinyl-1′-yl-acetamide]
IC50 [1, 3]: > 5 µM
IC50 [2, 4]: 2100 nM
